Experimental data as given in patent publication US10035800B2 (AbbVie Inc., priority 2013, dated 2018).

Legend:
BRD4 (BDI_K57-E168) = molecular target: T1, BRD4 (BDI_K57-E168) (Homo sapiens, UniProt O60885); test: TR-FRET bromodomain binding assay, first bromodomain of BRD4; conditions: 100 nM probe
T1 construct: BD1: amino acids K57-E168; made in house
Outline: (§1)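 Probe displacement by TR-FRET: 8 nM His-BRD4 bromodomain, 1 nM Eu-anti-His, Alexa647 BET-inhibitor probe at 100 nM (BDI) or 30 nM (BDII); 20 mM Na phosphate pH 6.0, 2% DMSO; 1 h RT. Ex 340, Em 495/520. IC50 from 4PL fit; Ki from IC50, probe Kd and probe concentration.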

[1] = tested on: breast cancer cell line MX-1; test: MX-1 cell line proliferation assay; assay type: cell-based; conditions: MX-1 cells, 3-day proliferation assay, Cell Titer Glo; read-out: Cellular proliferation: EC50
Outline: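 MX-1 cells at 5000/well, in RPMI 1640 with 10% FBS, were exposed to compounds for 3 days. Final concentrations ranged 3 μM–0.1 nM or 1 μM–0.03 nM, in 3-fold steps. Cell Titer Glo luminescence was normalized to DMSO and fitted sigmoidally for EC50; overall MSR 2.1.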

BRD4 (BDII_E352-M457) = molecular target: T2, BRD4 (BDII_E352-M457) (Homo sapiens, UniProt O60885); test: TR-FRET bromodomain binding assay, second bromodomain of BRD4; conditions: 30 nM probe
T2 construct: protocol; made in house
Outline: as §1

[2] = TR-FRET assay protocol G (compound 0.92 μM-15 pM)
[3] = TR-FRET assay protocol E (compound 9.19 μM-150 pM)

Ki (BRD4 (BDI_K57-E168); [2]) [nM]	EC50 [1] [nM]	Ki (BRD4 (BDII_E352-M457); [2]) [nM]	Compound	Ki (BRD4 (BDI_K57-E168); [3]) [nM]	Ki (BRD4 (BDII_E352-M457); [3]) [nM]
2.18	14.1	2.53	COc1ccccc1OC(=O)N1Cc2c[nH]c3c(=O)n(C)cc(c23)-c2cc(CS(C)(=O)=O)ccc21 [Example 95, 2-methoxyphenyl 10-methyl-7-((methylsulfonyl)methyl)-11-oxo-10,11-dihydro-1H-1,4,10-triazadibenzo[cd,f]azulene-4(3H)-carboxylate]		
0.99	5.43	0.71	CCNC(=O)c1[nH]c2c(=O)n(C)cc3c2c1CN(c1ccc(C#N)cc1)c1ccc(CS(C)(=O)=O)cc1-3 [Example 203, 4-(4-cyanophenyl)-N-ethyl-10-methyl-7-((methylsulfonyl)methyl)-11-oxo-3,4,10,11-tetrahydro-1H-1,4,10-triazadibenzo[cd,f]azulene-2-carboxamide]		
12.7	40.1	4.22	Cn1cc2c3c(c[nH]c3c1=O)CN(C(=O)Nc1ccc(F)cc1F)c1ccc(CS(C)(=O)=O)cc1-2 [Example 68, N-(2,4-difluorophenyl)-10-methyl-7-((methylsulfonyl)methyl)-11-oxo-10,11-dihydro-1H-1,4,10-triazadibenzo[cd,f]azulene-4(3H)-carboxamide]		
2.69	84.6	2.85	CCCNC(=O)N1Cc2c[nH]c3c(=O)n(C)cc(c23)-c2cc(CS(C)(=O)=O)ccc21 [Example 64, 10-methyl-7-((methylsulfonyl)methyl)-11-oxo-N-propyl-10,11-dihydro-1H-1,4,10-triazadibenzo[cd,f]azulene-4(3H)-carboxamide]		
54.9	175	3.06	Cn1cc2c3c(c[nH]c3c1=O)C(CCCOc1ccccc1)N(c1ccc(F)cc1F)c1ccc(CS(C)(=O)=O)cc1-2 (stereo not drawn) [Example 143, 4-(2,4-difluorophenyl)-10-methyl-7-((methylsulfonyl)methyl)-3-(3-phenoxypropyl)-3,4-dihydro-1H-1,4,10-triazadibenzo[cd,f]azulen-11(10H)-one]		
3.39	25.6	3.29	Cn1cc2c3c(c[nH]c3c1=O)CN(c1cncnc1)c1ccc(CS(C)(=O)=O)cc1-2 [Example 248, 10-methyl-7-((methylsulfonyl)methyl)-4-(pyrimidin-5-yl)-3,4-dihydro-1H-1,4,10-triazadibenzo[cd,f]azulen-11(10H)-one]		
7.04	> 1000	8.07	Cn1cc2c3c(c(C(=O)O)[nH]c3c1=O)CN(c1ccc(F)cc1F)c1ccc(CS(C)(=O)=O)cc1-2 [Example 263, 4-(2,4-difluorophenyl)-10-methyl-7-((methylsulfonyl)methyl)-11-oxo-3,4,10,11-tetrahydro-1H-1,4,10-triazadibenzo[cd,f]azulene-2-carboxylic acid]		
1.12	4.41	0.855	CCCN1Cc2c[nH]c3c(=O)n(C)cc(c23)-c2cc(F)cc(F)c21 [Example 48, 5,7-difluoro-10-methyl-4-propyl-3,4-dihydro-1H-1,4,10-triazadibenzo[cd,f]azulen-11(10H)-one]		
3.14	85.9	1.93	Cn1cc2c3c(c[nH]c3c1=O)CN(c1ccc(F)cc1F)c1c(C(N)=O)cc(CS(C)(=O)=O)cc1-2 [Example 240, 4-(2,4-difluorophenyl)-10-methyl-7-((methylsulfonyl)methyl)-11-oxo-3,4,10,11-tetrahydro-1H-1,4,10-triazadibenzo[cd,f]azulene-5-carboxamide]		
12.6	239	1.53	CNCCCC1c2c[nH]c3c(=O)n(C)cc(c23)-c2cc(CS(C)(=O)=O)ccc2N1c1ccc(F)cc1F (stereo not drawn) [Example 174, 4-(2,4-difluorophenyl)-10-methyl-3-(3-(methylamino)propyl)-7-((methylsulfonyl)methyl)-3,4-dihydro-1H-1,4,10-triazadibenzo[cd,f]azulen-11(10H)-one]		
5.89	19.2	1.91	CC(C)CC(=O)N1Cc2c[nH]c3c(=O)n(C)cc(c23)-c2cc(CS(C)(=O)=O)ccc21 [Example 106, 10-methyl-4-(3-methylbutanoyl)-7-((methylsulfonyl)methyl)-3,4-dihydro-1H-1,4,10-triazadibenzo[cd,f]azulen-11(10H)-one]		
	60.8		Cn1cc2c3c(c[nH]c3c1=O)CN(CC1CC1)c1ncc(S(N)(=O)=O)cc1-2 [Example 10, 4-(cyclopropylmethyl)-10-methyl-11-oxo-3,4,10,11-tetrahydro-1H-1,4,5,10-tetraazadibenzo[cd,f]azulene-7-sulfonamide]	6.94	5.99
49.5	> 1000	57.8	CN1CCN(C(=O)C2c3c[nH]c4c(=O)n(C)cc(c34)-c3cc(CS(C)(=O)=O)ccc3N2c2ccc(F)cc2)CC1 (stereo not drawn) [Example 41, 4-(4-fluorophenyl)-10-methyl-3-(4-methylpiperazine-1-carbonyl)-7-((methylsulfonyl)methyl)-3,4-dihydro-1H-1,4,10-triazadibenzo[cd,f]azulen-11(10H)-one]		
2.39	155	5	Cn1cc2c3c(c[nH]c3c1=O)CN(C1CCC(N)CC1)c1ccc(CS(C)(=O)=O)cc1-2 (mixture of isomers) [Example 212, 4-(4-aminocyclohexyl)-10-methyl-7-((methylsulfonyl)methyl)-3,4-dihydro-1H-1,4,10-triazadibenzo[cd,f]azulen-11(10H)-one]		
15.5	165	1.66	3-(4-(2,4-difluorophenyl)-10-methyl-7-((methylsulfonyl)methyl)-11-oxo-3,4,10,11-tetrahydro-1H-1,4,10-triazadibenzo[cd,f]azulen-3-yl)propanamide [Example 99]		
42.7	349	47.8	COC(=O)CNC(=O)C1c2c[nH]c3c(=O)n(C)cc(c23)-c2cc(CS(C)(=O)=O)ccc2N1c1ccc(F)cc1F (stereo not drawn) [Example 155, methyl 2-(4-(2,4-difluorophenyl)-10-methyl-7-((methylsulfonyl)methyl)-11-oxo-3,4,10,11-tetrahydro-1H-1,4,10-triazadibenzo[cd,f]azulene-3-carboxamido)acetate]		
6.1	17.7	19.1	Cn1cc2c3c(c[nH]c3c1=O)CN(Cc1ccccn1)c1ccc(CS(C)(=O)=O)cc1-2 [Example 249, 10-methyl-7-((methylsulfonyl)methyl)-4-(pyridin-2-ylmethyl)-3,4-dihydro-1H-1,4,10-triazadibenzo[cd,f]azulen-11(10H)-one]		
7.7	84	3.31	COC(=O)CCC(=O)N1Cc2c[nH]c3c(=O)n(C)cc(c23)-c2cc(CS(C)(=O)=O)ccc21 [Example 111, methyl 4-(10-methyl-7-((methylsulfonyl)methyl)-11-oxo-10,11-dihydro-1H-1,4,10-triazadibenzo[cd,f]azulen-4(3H)-yl)-4-oxobutanoate]		
11.4	510	2.14	Cn1cc2c3c(c[nH]c3c1=O)C(CNC(=O)CNC(=O)OC(C)(C)C)N(c1ccc(F)cc1F)c1ccc(CS(C)(=O)=O)cc1-2 (stereo not drawn) [Example 135, tert-butyl (2-(((4-(2,4-difluorophenyl)-10-methyl-7-((methylsulfonyl)methyl)-11-oxo-3,4,10,11-tetrahydro-1H-1,4,10-triazadibenzo[cd,f]azulen-3-yl)methyl)amino)-2-oxoethyl)carbamate]		

Compound	Ki (BRD4 (BDI_K57-E168); [2]) [nM]	EC50 [1] [nM]	Ki (BRD4 (BDII_E352-M457); [2]) [nM]	Ki (BRD4 (BDI_K57-E168); [3]) [nM]	Ki (BRD4 (BDII_E352-M457); [3]) [nM]
Cn1cc2c3c(c[nH]c3c1=O)CN(CC1CCNC1)c1ccc(CS(C)(=O)=O)cc1-2 (stereo not drawn) [Example 36]	5.05	> 1000	6.25		
4-(2-fluoropyridin-4-yl)-10-methyl-7-((methylsulfonyl)methyl)-3,4-dihydro-1H-1,4,10-triazadibenzo[cd,f]azulen-11(10H)-one [Example 254]	1.12	3.9	0.71		
4-(cyclopropylmethyl)-7-(isopropylsulfonyl)-10-methyl-3,4-dihydro-1H-1,4,10-triazadibenzo[cd,f]azulen-11(10H)-one [Example 1]		27.2		32.7	10.5
